Here are results for 15 compounds from patent US20230416262A1, “TRPML MODULATORS” (Casma Therapeutics, Inc., priority 2020, published 2023).

The test relates to TFEB. The test is described as follows: TFEB nuclear translocation assay. The settings on record: Homo sapiens; HeLa wt or HeLa TRPML1 KO cells, treated for 2 hrs; ratio of nuclear to ring-region TFEB intensity. Format: cell-based. The method, then:
For the TFEB nuclear translocation assay, HeLa wt or HeLa TRPML1 KO cells were plated at 2700 cells/well into black-walled, 384-well Cell carrier Ultra tissue culture treated plates in complete media and incubated overnight. The next day, cells are treated for 2 hrs with compounds and incubated at 37° C. Cells were then fixed for 30 minutes at room temperature in 4% final PFA and washed five times with 90 μL PBS. PBS is aspirated from the wells and the cells are blocked with 7.5 μL blocking buffer (1.1 PBS/Odyssey block buffer containing 0.1% triton x-100 and 1% goat serum). After 30-60 minutes of block, 7.5 μL of primary anti-TFEB (rabbit) antibody is added for a final dilution of 1:200 antibody in 15 μL blocking buffer. Plates are incubated overnight at 4° C. The following day, plates are washed again into PBS, 90 μL with 5 washes, all PBS is aspirated from the wells and the cells are incubated for 1 hr in 1:1000 goat-anti rabbit Alexa 488 secondary antibody, also containing 10 μg/mL Hoechst 33342. After the 1 hr RT incubation, plates are washed a final time into PBS, sealed with foil and imaged with an automated epifluorescence microscopy (PerkinElmer Operetta CLS). Four different fields were imaged per well using ×20 magnification for DAPI and FITC filter sets. Images were quantified using PerkinElmer Harmony software, briefly: apply flatfield correction (basic/advanced) for input images. Use the Find Nuclei building block with channel set at Hoechst to find the nuclei. Use the Find cytoplasm building block with channel set to Alexa 488 to find the cytoplasm. Use select cell region with Channel set at Alexa 488 and region of interest as Nuclei and define outer border at 0 μm and inner at 45 μm to cover complete nuclei. Use select cell region with Channel set at Alexa 488 and region of interest as ring region and define outer border at −5 μm and inner at 0 μm to define a ring around the nucleus. Use the find calculate intensity parameter to calculate intensity of the nuclear region and the ring region. Define results as Number of nuclei and ratio of A/B where A is Intensity of Nuclei and B is intensity of the ring region.

pEC50: −log10 of the molar value.

In the case of `O=S(=O)(c1cnc(-c2ccccc2)o1)N1CC2(CCCC2)c2ccccc21` [Compound I-39, 1′-[(2-phenyl-1,3-oxazol-5-yl)sulfonyl]-1′,2′-dihydrospiro[cyclopentane-1,3′-indole]], the pEC50 is at most 5.00.

With `O=S(=O)(C1=Cc2ccccc2OCC1)N1CC2(CCCC2)c2ccccc21` [Compound I-40, 1′-(2,3-dihydro-1-benzoxepine-4-sulfonyl)-1′,2′-dihydrospiro[cyclopentane-1,3′-indole]], the pEC50 was 5.10 to 5.70.

For the compound `O=S(=O)(C1=Cc2ccccc2OC1)N1CC2(CCCC2)c2ccccc21` [Compound I-41, 1′-(2H-chromene-3-sulfonyl)-1′,2′-dihydrospiro[cyclopentane-1,3′-indole]], the pEC50 was 5.00 to 5.10.

Consider `O=S(=O)(C1=Cc2ccccc2CC1)N1CC2(CCCC2)c2ccccc21` [Compound I-42, 1′-(3,4-dihydronaphthalene-2-sulfonyl)-1′,2′-dihydrospiro[cyclopentane-1,3′-indole]], for which the pEC50 was 5.10 to 5.70.

As to `O=S(=O)(c1ccn(C2CC2(F)F)n1)N1CC2(CCCC2)c2ccccc21` (stereo not drawn) [Compound I-43, 1′-{[1-(2,2-difluorocyclopropyl)-1H-pyrazol-3-yl]sulfonyl}-1′,2′-dihydrospiro[cyclopentane-1,3′-indole]], the pEC50 is at most 5.00.

Take `Cc1ccc(CS(=O)(=O)N2CC3(CCCC3)c3ccccc32)c(F)c1` [Compound I-44, 1′-[(2-fluoro-4-methylphenyl)methanesulfonyl]-1′,2′-dihydrospiro[cyclopentane-1,3′-indole]]: the pEC50 is 5.10 to 5.70.

`O=S(=O)(Cc1ccc(C(F)F)cc1)N1CC2(CCCC2)c2ccccc21` [Compound I-45, 1′-{[4-(difluoromethyl)phenyl]methanesulfonyl}-1′,2′-dihydrospiro[cyclopentane-1,3′-indole]]: the pEC50 is 5.10 to 5.70.

As to `O=S(=O)(Cc1cccc(Cl)c1)N1CC2(CCCC2)c2ccccc21` [Compound I-46, 1′-[(3-chlorophenyl)methanesulfonyl]-1′,2′-dihydrospiro[cyclopentane-1,3′-indole]], the pEC50 is 5.10 to 5.70.

For the compound `Cc1ccc(F)c(CS(=O)(=O)N2CC3(CCCC3)c3ccccc32)c1` [Compound I-47, 1′-[(2-fluoro-5-methylphenyl)methanesulfonyl]-1′,2′-dihydrospiro[cyclopentane-1,3′-indole]], the pEC50 is 5.10 to 5.70.

On to `O=S(=O)(c1cccc(C2CC2(F)F)c1)N1CC2(CCCC2)c2ccccc21` (stereo not drawn) [Compound I-49, 1′-[3-(2,2-difluorocyclopropyl)benzenesulfonyl]-1′,2′-dihydrospiro[cyclopentane-1,3′-indole]], for which the pEC50 is 5.10 to 5.70.

`CC(C)(O)c1ccc(S(=O)(=O)N2CC3(CCCC3)c3ccccc32)cc1` [Compound I-50, 2-[4-({1′,2′-dihydrospiro[cyclopentane-1,3′-indol]-1′-yl}sulfonyl)phenyl]propan-2-ol]: the pEC50 was at most 5.00.

With `CC1(C)Cc2cc(S(=O)(=O)N3CC4(CCCC4)c4ccccc43)ccc2C1=O` [Compound I-51, 5-({1′,2′-dihydrospiro[cyclopentane-1,3′-indol]-1′-yl}sulfonyl)-2,2-dimethyl-2,3-dihydro-1H-inden-1-one], the pEC50 was 5.00 to 5.10.

`CN(c1ccc(S(=O)(=O)N2CC3(CCCC3)c3ccccc32)cc1)S(C)(=O)=O` [Compound I-52, N-[4-({1′,2′-dihydrospiro[cyclopentane-1,3′-indol]-1′-yl}sulfonyl)phenyl]-N-methylmethanesulfonamide]: the pEC50 was at most 5.00.

`COC(=O)C(C)(C)c1ccc(S(=O)(=O)N2CC3(CCCC3)c3ccccc32)cc1` [Compound I-53, methyl 2-[4-({1′,2′-dihydrospiro[cyclopentane-1,3′-indol]-1′-yl}sulfonyl)phenyl]-2-methylpropanoate]: the pEC50 was at most 5.00.

As for `CC(C)(CO)c1ccc(S(=O)(=O)N2CC3(CCCC3)c3ccccc32)cc1` [Compound I-54, 2-[4-({1′,2′-dihydrospiro[cyclopentane-1,3′-indol]-1′-yl}sulfonyl)phenyl]-2-methylpropan-1-ol], the pEC50 was at most 5.00.
